molecular target: T1, rat B1R (bradykinin receptor 1) (Rattus norvegicus, UniProt P97583); test: FLIPR Ca2+ assay (Fluo-4) on CHO K1 cells stably transfected with the B1R gene of the rat (rB1R cells): % inhibition at 10 μM / IC50, agonist Des-Arg9-bradykinin; format: cell-based; conditions: CHO-K1, rat B1R
T1 construct: expressed in transfected cells; host or cells: CHO K1 cells
T1 sequence (P97583 1-337): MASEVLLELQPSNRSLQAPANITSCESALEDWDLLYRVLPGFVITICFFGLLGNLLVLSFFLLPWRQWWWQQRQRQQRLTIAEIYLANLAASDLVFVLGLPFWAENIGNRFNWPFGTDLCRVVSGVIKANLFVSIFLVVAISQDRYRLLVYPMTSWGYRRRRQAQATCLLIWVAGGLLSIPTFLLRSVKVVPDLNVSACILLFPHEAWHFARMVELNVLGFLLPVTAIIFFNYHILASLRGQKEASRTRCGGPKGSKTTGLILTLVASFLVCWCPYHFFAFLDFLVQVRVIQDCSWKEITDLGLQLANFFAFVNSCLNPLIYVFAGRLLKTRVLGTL
Method in brief: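 Loading with Fluo-4 occurs for 60 min at 37 °C, or alternatively in buffer A, before FLIPR measurement. Compounds are applied, incubated 10–20 min, and then the EC80 agonist is added. Antagonism appears as reduced peak Ca2+ signal relative to maximal inhibition.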

Compound	inhibition at 10 µM
COc1cccc(F)c1CN1CCC2(CC1)CCN(C(=O)c1ccc3c(c1)C(N1Cc4c(c5c(Cl)cccc5n4C)C1=O)CC3)C2 (centres unmarked) [IND_CC-795, 8-Chloro-2-[6-[8-[(2-fluoro-6-methoxy-phenyl)-methyl]-2,8-diazaspiro[4.5]-decane-2-carbonyl]-2,3-dihydro-1H-inden-1-yl]-4-methyl-3,4-dihydro-2H-pyrrolo[3,4-b]indol-1-one]	54%
Cn1cncc1CN1CCC2(CC1)CCN(C(=O)c1ccc3c(c1)C(NC(=O)c1c(F)cccc1Cl)CC3)CC2 (centres unmarked) [IND_CC-796, 2-Chloro-6-fluoro-N-[6-[9-[(3-methyl-3H-imidazol-4-yl)-methyl]-3,9-diazaspiro[5.5]undecane-3-carbonyl]-2,3-dihydro-1H-inden-1-yl]-benzamide]	66%
O=C(NC1CCc2ccc(C(=O)N3CCC4(CCN(Cc5csnn5)CC4)CC3)cc21)c1c(F)cccc1Cl (centres unmarked) [IND_CC-797, 2-Chloro-6-fluoro-N-[6-[9-([1,2,3]thiadiazol-4-yl-methyl)-3,9-diazaspiro[5.5]undecane-3-carbonyl]-2,3-dihydro-1H-inden-1-yl]-benzamide]	91%
Cc1c(CN2CCC3(CC2)CCN(C(=O)c2ccc4c(c2)C(NC(=O)c2c(F)cccc2Cl)CC4)CC3)cnn1C (centres unmarked) [IND_CC-798, 2-Chloro-N-[6-[9-[(1,5-dimethyl-1H-pyrazol-4-yl)-methyl]-3,9-diazaspiro-[5.5]undecane-3-carbonyl]-2,3-dihydro-1H-inden-1-yl]-6-fluoro-benzamide]	71%
Cc1noc(C)c1CN1CCC2(CC1)CCN(C(=O)c1ccc3c(c1)C(NC(=O)c1c(F)cccc1Cl)CC3)CC2 (centres unmarked) [IND_CC-799, 2-Chloro-N-[6-[9-[(3,5-dimethyl-isoxazol-4-yl)-methyl]-3,9-diazaspiro-[5.5]undecane-3-carbonyl]-2,3-dihydro-1H-inden-1-yl]-6-fluoro-benzamide]	52%
N#Cc1cccc(CN2CCC3(CC2)CCN(C(=O)c2ccc4c(c2)C(NC(=O)c2c(F)cccc2Cl)CC4)CC3)c1 (centres unmarked) [IND_CC-800, 2-Chloro-N-[6-[9-[(3-cyano-phenyl)-methyl]-3,9-diazaspiro[5.5]undecane-3-carbonyl]-2,3-dihydro-1H-inden-1-yl]-6-fluoro-benzamide]	97%
N#Cc1ccccc1CN1CCC2(CC1)CCN(C(=O)c1ccc3c(c1)C(NC(=O)c1c(F)cccc1Cl)CC3)CC2 (centres unmarked) [IND_CC-801, 2-Chloro-N-[6-[9-[(2-cyano-phenyl)-methyl]-3,9-diazaspiro[5.5]undecane-3-carbonyl]-2,3-dihydro-1H-inden-1-yl]-6-fluoro-benzamide]	92%
O=C(NC1CCc2ccc(C(=O)N3CCC4(CCN(Cc5ccc(F)cc5Cl)CC4)CC3)cc21)c1c(F)cccc1Cl (centres unmarked) [IND_CC-802, 2-Chloro-N-[6-[9-[(2-chloro-4-fluoro-phenyl)-methyl]-3,9-diazaspiro-[5.5]undecane-3-carbonyl]-2,3-dihydro-1H-inden-1-yl]-6-fluoro-benzamide]	89%
O=C(NC1CCc2ccc(C(=O)N3CCC4(CCN(Cc5c(F)cccc5Cl)CC4)CC3)cc21)c1c(F)cccc1Cl (centres unmarked) [IND_CC-803, 2-Chloro-N-[6-[9-[(2-chloro-6-fluoro-phenyl)-methyl]-3,9-diazaspiro-[5.5]undecane-3-carbonyl]-2,3-dihydro-1H-inden-1-yl]-6-fluoro-benzamide]	76%
O=C(NC1CCc2ccc(CC(=O)N3CCC4(CCN(Cc5ccc6ncccc6c5)CC4)C3)cc21)c1ccccc1Cl (centres unmarked) [IND_CC-804, 2-Chloro-N-[6-[2-oxo-2-[8-(quinolin-6-yl-methyl)-3,8-diazaspiro[4.5]decan-3-yl]-ethyl]-2,3-dihydro-1H-inden-1-yl]-benzamide]	61%

Results, then the compound that gave them:

inhibition at 10 µM	Compound
51%	O=C(NC1CCc2ccc(CC(=O)N3CCC4(CCN(Cc5ccc6nccnc6c5)CC4)C3)cc21)c1ccccc1Cl (centres unmarked) [IND_CC-805, 2-Chloro-N-[6-[2-oxo-2-[8-(quinoxalin-6-yl-methyl)-3,8-diazaspiro[4.5]decan-3-yl]-ethyl]-2,3-dihydro-1H-inden-1-yl]-benzamide]
75%	CCC(CC)CN1CCC2(CC1)CCN(C(=O)Cc1ccc3c(c1)C(NC(=O)c1ccccc1Cl)CC3)C2 (centres unmarked) [IND_CC-806, 2-Chloro-N-[6-[2-[8-(2-ethyl-butyl)-3,8-diazaspiro[4.5]decan-3-yl]-2-oxo-ethyl]-2,3-dihydro-1H-inden-1-yl]-benzamide]
53%	O=C(NC1CCc2ccc(CC(=O)N3CCC4(CCN(CC5CCCCC5)CC4)C3)cc21)c1ccccc1Cl (centres unmarked) [IND_CC-807, 2-Chloro-N-[6-[2-[8-(cyclohexyl-methyl)-3,8-diazaspiro[4.5]decan-3-yl]-2-oxo-ethyl]-2,3-dihydro-1H-inden-1-yl]-benzamide]
100%	COc1cc(C)c(S(=O)(=O)NC2CCc3ccc(C(=O)N4CCC5(CCN(c6ccncc6)CC5)C4)cc32)c(C)c1 (centres unmarked) [Ind_CC-087, 4-methoxy-2,6-dimethyl-N-[6-(8-pyridin-4-yl-2,8-diazaspiro[4.5]decane-2-carbonyl)-2,3-dihydro-1H-inden-1-yl]-benzenesulfonic acid amide]
93%	COc1cc(C)c(C(=O)NC2CCc3ccc(C(=O)N4CCC5(CCN(c6ccncc6)CC5)C4)cc32)c(C)c1 (centres unmarked) [Ind_CC-088, 4-methoxy-2,6-dimethyl-N-[6-(8-pyridin-4-yl-2,8-diazaspiro[4.5]decane-2-carbonyl)-2,3-dihydro-1H-inden-1-yl]-benzamide]
100%	O=C(c1ccc2c(c1)C(NS(=O)(=O)c1ccccc1Cl)CC2)N1CCC2(CCN(c3ccncc3)CC2)C1 (centres unmarked) [Ind_CC-089, 2-chloro-N-[6-(8-pyridin-4-yl-3,8-diazaspiro[4.5]decane-3-carbonyl)-2,3-dihydro-1H-inden-1-yl]-benzenesulfonic acid amide]

same assay, conditions: rat B1R

Compound	% Inhibition (rat B1R) at 10 μM
N,3-Dimethyl-N-[6-(9-pyridin-4-yl-3,9-diazaspiro[5.5]undecane-3-carbonyl)-2,3-dihydro-1H-inden-1-yl]-butyramide [IND_CC-408]	101%

Reference: patent publication US8455475B2 (Gruenenthal GmbH, priority 2009, dated 2013)
